# Laboratory results from ChEMBL document CHEMBL3797188, “Piperidine derivatives as nonprostanoid IP receptor agonists 2” (Bioorg Med Chem Lett, 2016).
# pIC50, pKi: −log10 of the molar value.
# Experiments:
# [1] = Antiplatelet activity in human platelet rich plasma assessed as inhibition of ADP-induced platelet aggregation; format: functional, cell-free
# [2] = Oral bioavailability in fasted dog at 0.5 mg/kg; format: ADME, organism-based, Canis lupus familiaris; conditions: in vivo
# [3] = Cmax in fasted dog at 0.5 mg/kg, po; format: ADME, organism-based, Canis lupus familiaris; design: dose 0.5 mg/kg, route oral; conditions: in vivo
# [4] = biological target: Prostaglandin F2-alpha receptor (Homo sapiens, UniProt P43088); experiment: Binding affinity to human FP receptor
# [5] = biological target: T1, Prostaglandin E2 receptor EP3 subtype (Homo sapiens, UniProt P43115); experiment: Binding affinity to human EP3 receptor
# T1 sequence (P43115 whole entry): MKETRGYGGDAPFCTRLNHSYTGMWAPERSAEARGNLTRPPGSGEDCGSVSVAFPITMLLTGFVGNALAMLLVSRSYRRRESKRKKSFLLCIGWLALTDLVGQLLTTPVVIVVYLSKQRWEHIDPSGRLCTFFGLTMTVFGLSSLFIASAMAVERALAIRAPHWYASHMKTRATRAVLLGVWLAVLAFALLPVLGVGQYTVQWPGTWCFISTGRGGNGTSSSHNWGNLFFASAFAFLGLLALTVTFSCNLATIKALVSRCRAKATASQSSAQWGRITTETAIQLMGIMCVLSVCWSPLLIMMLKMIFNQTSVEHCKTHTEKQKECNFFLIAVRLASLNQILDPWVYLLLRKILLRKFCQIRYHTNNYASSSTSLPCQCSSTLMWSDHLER
# [6] = biological target: T2, Thromboxane A2 receptor (Homo sapiens, UniProt P21731); experiment: Binding affinity to human TP receptor
# T2 sequence (P21731 whole entry): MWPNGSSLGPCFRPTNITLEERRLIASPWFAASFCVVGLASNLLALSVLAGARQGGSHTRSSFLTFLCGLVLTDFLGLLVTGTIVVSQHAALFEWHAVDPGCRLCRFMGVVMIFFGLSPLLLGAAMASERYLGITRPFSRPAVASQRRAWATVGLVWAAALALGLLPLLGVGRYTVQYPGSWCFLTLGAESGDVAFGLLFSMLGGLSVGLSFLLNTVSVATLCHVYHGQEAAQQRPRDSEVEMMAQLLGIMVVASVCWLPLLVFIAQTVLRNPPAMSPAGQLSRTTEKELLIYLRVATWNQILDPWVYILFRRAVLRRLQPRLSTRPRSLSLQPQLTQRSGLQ
# [7] = biological target: Prostaglandin E2 receptor EP2 subtype (Homo sapiens, UniProt P43116); experiment: Binding affinity to human EP2 receptor
# [8] = biological target: Prostacyclin receptor (Homo sapiens, UniProt P43119); experiment: Binding affinity to human IP receptor
# [9] = biological target: Prostaglandin E2 receptor EP4 subtype (Homo sapiens, UniProt P35408); experiment: Binding affinity to human EP4 receptor
# Sequence of Prostaglandin E2 receptor EP4 subtype (P35408 whole entry): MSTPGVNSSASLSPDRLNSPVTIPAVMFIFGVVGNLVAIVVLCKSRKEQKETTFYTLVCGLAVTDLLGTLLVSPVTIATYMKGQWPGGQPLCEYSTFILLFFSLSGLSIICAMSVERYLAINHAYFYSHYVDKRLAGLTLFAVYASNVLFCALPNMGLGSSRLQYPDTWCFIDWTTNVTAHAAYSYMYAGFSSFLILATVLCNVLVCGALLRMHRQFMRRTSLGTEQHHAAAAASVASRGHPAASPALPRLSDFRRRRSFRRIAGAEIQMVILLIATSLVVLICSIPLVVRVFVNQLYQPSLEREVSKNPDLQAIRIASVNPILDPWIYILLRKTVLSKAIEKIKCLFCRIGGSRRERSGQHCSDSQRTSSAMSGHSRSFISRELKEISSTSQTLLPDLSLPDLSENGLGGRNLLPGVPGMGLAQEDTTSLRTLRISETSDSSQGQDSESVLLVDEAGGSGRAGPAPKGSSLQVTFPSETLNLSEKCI
# Sequence of Prostacyclin receptor (P43119 whole entry): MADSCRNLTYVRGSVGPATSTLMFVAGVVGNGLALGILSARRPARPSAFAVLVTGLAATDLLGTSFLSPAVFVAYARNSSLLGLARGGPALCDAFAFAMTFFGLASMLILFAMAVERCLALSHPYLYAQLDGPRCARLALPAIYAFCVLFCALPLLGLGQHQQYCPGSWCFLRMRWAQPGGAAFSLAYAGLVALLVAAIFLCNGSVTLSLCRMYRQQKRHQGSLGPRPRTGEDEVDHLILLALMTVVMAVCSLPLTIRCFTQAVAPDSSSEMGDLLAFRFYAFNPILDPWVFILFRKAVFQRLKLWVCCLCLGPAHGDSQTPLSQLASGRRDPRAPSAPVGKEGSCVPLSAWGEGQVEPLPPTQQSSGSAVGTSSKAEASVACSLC
# Sequence of Prostaglandin E2 receptor EP2 subtype (P43116 whole entry): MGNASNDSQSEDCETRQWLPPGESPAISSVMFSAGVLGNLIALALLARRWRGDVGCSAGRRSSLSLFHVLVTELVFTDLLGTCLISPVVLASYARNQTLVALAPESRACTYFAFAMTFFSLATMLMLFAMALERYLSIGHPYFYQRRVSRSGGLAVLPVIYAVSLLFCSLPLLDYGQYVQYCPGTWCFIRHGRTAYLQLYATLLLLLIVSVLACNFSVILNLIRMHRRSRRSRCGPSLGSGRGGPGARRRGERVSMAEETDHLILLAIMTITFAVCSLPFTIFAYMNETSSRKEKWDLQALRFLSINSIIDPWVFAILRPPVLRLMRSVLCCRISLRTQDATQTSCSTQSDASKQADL
# Sequence of Prostaglandin F2-alpha receptor (P43088 whole entry): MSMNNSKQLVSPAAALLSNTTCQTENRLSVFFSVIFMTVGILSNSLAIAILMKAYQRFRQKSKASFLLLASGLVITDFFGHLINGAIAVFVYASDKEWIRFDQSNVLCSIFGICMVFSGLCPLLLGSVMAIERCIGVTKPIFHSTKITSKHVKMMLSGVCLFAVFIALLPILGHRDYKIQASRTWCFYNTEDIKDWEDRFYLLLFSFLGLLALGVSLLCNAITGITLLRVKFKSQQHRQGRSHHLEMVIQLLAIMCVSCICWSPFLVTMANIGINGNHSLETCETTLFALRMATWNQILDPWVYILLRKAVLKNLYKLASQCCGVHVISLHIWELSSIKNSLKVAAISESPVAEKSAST
Structure (SMILES),pIC50 [1],further results
O=C(O)COC1CCN(CCN(C(=O)c2ccccc2)c2ccc(Cl)cc2)CC1,6.36,
Cc1ccc(N(CCN2CCC(OCC(=O)O)CC2)C(=O)c2ccccc2)cc1,6.66,
Cc1ccc(N(CCN2CCC(OCC(=O)O)CC2)C(=O)c2ccc(C(F)(F)F)cc2)cc1,< 5.00,
COc1ccc(OC)c(C(=O)N(CCN2CCC(OCC(=O)O)CC2)c2ccc(C)cc2)c1,< 5.52,
Cc1ccc(N(CCN2CCC(OCC(=O)O)CC2)C(=O)c2cccc(C(F)(F)F)c2)cc1,4.70,
O=C(O)COC1CCN(CCN(C(=O)c2cccc(C(F)(F)F)c2)c2ccc(Cl)cc2)CC1,< 5.00,
Cc1ccc(N(CCN2CCC(OCC(=O)O)CC2)C(=O)c2cccc(Cl)c2)cc1,7.00,
Cc1ccc(N(CCN2CCC(OCC(=O)O)CC2)C(=O)c2ccc(-c3ccccc3)cc2)cc1,< 5.00,
COc1ccc(C(=O)N(CCN2CCC(OCC(=O)O)CC2)c2ccc(Cl)cc2)cc1,5.51,
COc1ccc(C(=O)N(CCN2CCC(OCC(=O)O)CC2)c2ccc(C)cc2)cc1OC,< 5.52,
Cc1ccc(N(CCN2CCC(OCC(=O)O)CC2)C(=O)c2ccc(Cl)cc2)cc1,6.16,
Cc1ccc(N(CCN2CCC(OCC(=O)O)CC2)C(=O)c2ccc(F)cc2)cc1,6.01,
O=C(O)COC1CCN(CCN(C(=O)c2ccc(F)cc2)c2ccc(Cl)cc2)CC1,5.70,
O=C(O)COC1CCN(CCN(C(=O)c2cccc(Cl)c2)c2ccc(Cl)cc2)CC1,6.46,
COc1ccc(C(=O)N(CCN2CCC(OCC(=O)O)CC2)c2ccc(C)cc2)cc1,5.92,
O=C(O)COC1CCN(CCN(C(=O)c2ccc(C(F)(F)F)cc2)c2ccc(Cl)cc2)CC1,< 5.00,
Cc1ccc(N(CCN2CCC(OCC(=O)O)CC2)C(=O)c2ccc3c(c2)OCO3)cc1.Cl.O,,bioavailability [2]: 76%; Cmax [3]: 130 ng/mL; pKi [4]: < 4.30; pKi [5]: < 4.30; pKi [6]: < 4.30; pKi [7]: < 4.30; pKi [8]: 6.40; pKi [9]: < 4.30
COc1cccc(C(=O)N(CCN2CCC(OCC(=O)O)CC2)c2ccc(C)cc2)c1,7.49,
Cc1ccc(N(CCN2CCC(OCC(=O)O)CC2)C(=O)c2ccc3c(c2)OCO3)cc1,7.68,
Cc1ccc(N(CCN2CCC(OCC(=O)O)CC2)C(=O)c2cccc(C)c2)cc1,6.80,
COc1cccc(C(=O)N(CCN2CCC(OCC(=O)O)CC2)c2ccc(Cl)cc2)c1,7.13,
O=C(O)COC1CCN(CCN(C(=O)c2ccc(-c3ccccc3)cc2)c2ccc(Cl)cc2)CC1,< 5.00,
Cc1cccc(C(=O)N(CCN2CCC(OCC(=O)O)CC2)c2ccc(Cl)cc2)c1,6.51,
O=C(O)COC1CCN(CCN(C(=O)c2cccc(F)c2)c2ccc(Cl)cc2)CC1,6.47,
COc1cccc(C(=O)N(CCN2CCC(OCC(=O)O)CC2)c2ccc(C)cc2)c1OC,5.80,
COc1cc(OC)cc(C(=O)N(CCN2CCC(OCC(=O)O)CC2)c2ccc(C)cc2)c1,6.28,
Cc1ccc(N(CCN2CCC(OCC(=O)O)CC2)C(=O)c2cccc(F)c2)cc1,6.80,
O=C(O)COC1CCN(CCN(C(=O)c2ccc(Cl)cc2)c2ccc(Cl)cc2)CC1,5.82,
